Data taken from PubChem BioAssay (NCI).
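Each compound was tested at five concentrations against cells in 96-well plates for 48 hours. GI50 marks 50% less growth. TGI is the concentration that stops growth completely.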

Test system: MCF7 breast
Assay: DTP human tumour cell line panel, 48 h

| SMILES | GI50 [µM] | TGI [µM] |
| --- | --- | --- |
| N#Cc1nc2c(S(=O)(=O)c3ccc(Cl)cc3)c(N)n(Nc3cccc(Cl)c3)c2nc1C#N | 0.015 | – |
| COC(=O)OC1C(O[C@H]2C[C@H]3[C@@H]4CC=C5C[C@@H](O)CC[C@]5(C)[C@H]4CC[C@]3(C)[C@H]2[C@H](C)C(=O)CCC(C)C)OCC(O)C1OC1OCC(O)C(O)C1OC(=O)c1ccc(OC)cc1 (stereo not given in full) | 0.0108 | 0.545 |
| O=C1/C(=C\c2ccccc2)CN(C(=O)CCN2CCCCC2)C/C1=C/c1ccccc1 | – | 1.86 |
| CCCCCCCCCCCC[N+]1(CCCCCCCCCCCC)CCCC(C)C1 (stereo not given) | 0.257 | 1.2 |

Test system: HCC-2998 colon
Assay: DTP human tumour cell line panel, 48 h

| SMILES | GI50 [µM] | TGI [µM] |
| --- | --- | --- |
| COc1ccc(OC)c(NCC(=O)n2nc(/C=C\c3ccc(O)c(OC)c3)cc2/C=C\c2ccc(O)c(OC)c2)c1 | 2.04 | 3.98 |
| Cc1nc2ccccc2nc1CC(=O)C(=O)Nc1ccc(Cl)cc1Cl | – | > 100 |
| COc1cc(Nc2cnc3ccc(C(F)(F)F)cc3n2)cc(OC)c1OC | – | > 100 |
| O=C1[C@@H]2C(c3c(Cl)cccc3Cl)=NO[C@@H]2C(=O)N1c1ccc(Cc2ccc(N3C(=O)[C@H]4C(c5c(Cl)cccc5Cl)=NO[C@H]4C3=O)cc2)cc1 | – | > 100 |
| CCc1cccc(C)c1NC(=O)CCc1nc(=S)[nH][nH]1 | – | > 100 |
| N#C/C(=C\c1cc(OCc2ccccc2)c(OCc2ccccc2)cn1)C(N)=O | – | > 100 |
| N#CC(C(=O)C(=O)Nc1c(Cl)cccc1Cl)c1ccccc1 (stereo not given) | > 100 | > 100 |
| COC(=O)C1C(C(=O)OC)C2C(=O)C3C(C(=O)OC)C(C(=O)OC)C3C(=O)C12 (stereo not given) | – | > 100 |
| O=C(NC12CC3CCC1CC(C3)C2)[C@@H]1CCCN1C(=O)OCc1ccccc1 (stereo not given in full) | – | > 100 |
| O=C1NC(=O)c2c1n(Cc1ccccc1)c(=O)n2Cc1ccccc1 | – | > 100 |
| Cc1nc(N)nc(CCC(=O)Nc2cccc(C(F)(F)F)c2)c1-c1ccc(Cl)cc1 | – | > 100 |
| COc1cc([C@@H]2c3cc4c(cc3[C@@H](NC(=O)c3ccc(C#N)cc3)C3COC(=O)[C@@H]32)OCO4)cc(OC)c1O (stereo not given in full) | – | 4.18 |
| O=[N+]([O-])c1cccc(C2=NN(c3ccccc3)C3c4cc(Br)ccc4OCC23)c1 (stereo not given) | – | > 100 |
| COc1cc2oc(-c3ccc(O)cc3)cc(=O)c2c(O)c1C1OC(CO)C(O)C(O)C1O (stereo not given) | – | > 100 |
| COc1ccc(OC)c(/C=C/c2nc(=S)n(-c3ccc(Cl)cc3)[nH]2)c1 | 13.3 | > 100 |
| CCn1cc(C(=O)O)c(=O)c2cc(F)c(N3CCN(S(=O)(=O)c4cccc5ccccc45)CC3)cc21 | 4.26 | 61.9 |

| SMILES | GI50 [µM] | TGI [µM] |
| --- | --- | --- |
| NNC(=O)C(=O)N/N=C1/CCCC1C(=O)CCC(=O)Nc1ccc(Cl)cc1 (stereo not given) | – | > 100 |
| COC(=O)CCC(NC(=S)N/N=C/c1cccs1)C(=O)OC (stereo not given) | – | > 100 |
| O=c1/c(=C/c2ccccc2[N+](=O)[O-])sc2nnc(-c3cccnc3)n12 | – | > 100 |
| O=[N+]([O-])c1ccc(Cl)c2c([N+](=O)[O-])cccc12 | – | > 10 |
| COC(=O)/C=C(/C(=O)OC)C1(C)c2cc(C(=O)OC)c(C(=O)OC)c(N)c2C(=N)N1c1ccccc1 (stereo not given) | – | 51.6 |
| CCN1C(=S)N(CC)C2C1NC(=S)N2/N=C/C=C/c1ccccc1OC (stereo not given) | 0.392 | 25.3 |
| N#Cc1nc2c(S(=O)(=O)c3ccc(Cl)cc3)c(N)n(Nc3cccc(Cl)c3)c2nc1C#N | 0.0161 | > 100 |
| COC(=O)OC1C(O[C@H]2C[C@H]3[C@@H]4CC=C5C[C@@H](O)CC[C@]5(C)[C@H]4CC[C@]3(C)[C@H]2[C@H](C)C(=O)CCC(C)C)OCC(O)C1OC1OCC(O)C(O)C1OC(=O)c1ccc(OC)cc1 (stereo not given in full) | 1.44 | > 27.5 |
| CCOC(=O)c1nc(C)oc1C(F)(F)F | – | > 100 |
| O=C1/C(=C\c2ccccc2)CN(C(=O)CCN2CCCCC2)C/C1=C/c1ccccc1 | – | 2.81 |
| Cc1ccc(S(=O)(=O)OCC/C(=C\[Si](C)(C)C)c2ccccc2)cc1 | – | > 100 |
| COc1nc2c(c(O)c(C)c(=O)n2OC2OCC(OC(C)=O)C(OC(C)=O)C2OC(C)=O)c(=O)n1C (stereo not given) | – | > 100 |
| CCc1ccccc1NC(=O)c1cccc([N+](=O)[O-])c1O | – | > 100 |
| O=C(NC1C(=O)NNC1c1cccc([N+](=O)[O-])c1)c1ccccc1 (stereo not given) | – | > 100 |
| CCCCCCCCCCCC[N+]1(CCCCCCCCCCCC)CCCC(C)C1 (stereo not given) | 0.303 | 1.38 |

Test system: MDA-MB-231 breast
Assay: DTP human tumour cell line panel, 48 h

| SMILES | GI50 [µM] | TGI [µM] |
| --- | --- | --- |
| COc1ccc(OC)c(NCC(=O)n2nc(/C=C\c3ccc(O)c(OC)c3)cc2/C=C\c2ccc(O)c(OC)c2)c1 | 3.02 | > 100 |
| CC(Br)C(=O)NC(CO)C(=O)O (stereo not given) | – | > 100 |
| COc1ccc(OC)c(/C=C/c2nc(=S)n(-c3ccc(Cl)cc3)[nH]2)c1 | 14.5 | > 100 |
| CCn1cc(C(=O)O)c(=O)c2cc(F)c(N3CCN(S(=O)(=O)c4cccc5ccccc45)CC3)cc21 | 1.91 | 4.71 |
| CCn1c2c(c3ccccc3c1=O)C(=O)c1ccccc1-2 | – | > 100 |
| CCN1C(=S)N(CC)C2C1NC(=S)N2/N=C/C=C/c1ccccc1OC (stereo not given) | 0.521 | 10.3 |
| N#Cc1nc2c(S(=O)(=O)c3ccc(Cl)cc3)c(N)n(Nc3cccc(Cl)c3)c2nc1C#N | 0.0178 | 0.0869 |
| COC(=O)OC1C(O[C@H]2C[C@H]3[C@@H]4CC=C5C[C@@H](O)CC[C@]5(C)[C@H]4CC[C@]3(C)[C@H]2[C@H](C)C(=O)CCC(C)C)OCC(O)C1OC1OCC(O)C(O)C1OC(=O)c1ccc(OC)cc1 (stereo not given in full) | 0.082 | 4.46 |
| O=C1/C(=C\c2ccccc2)CN(C(=O)CCN2CCCCC2)C/C1=C/c1ccccc1 | – | 3.29 |

Test system: DU-145 prostate
Assay: DTP human tumour cell line panel, 48 h

| SMILES | GI50 [µM] | TGI [µM] |
| --- | --- | --- |
| COc1ccc(OC)c(NCC(=O)n2nc(/C=C\c3ccc(O)c(OC)c3)cc2/C=C\c2ccc(O)c(OC)c2)c1 | 3.23 | 12.7 |
| CC(Br)C(=O)NC(CO)C(=O)O (stereo not given) | – | > 100 |
| COc1ccc(OC)c(/C=C/c2nc(=S)n(-c3ccc(Cl)cc3)[nH]2)c1 | 19.1 | > 100 |
| CCn1cc(C(=O)O)c(=O)c2cc(F)c(N3CCN(S(=O)(=O)c4cccc5ccccc45)CC3)cc21 | 3.97 | > 100 |
| CCn1c2c(c3ccccc3c1=O)C(=O)c1ccccc1-2 | – | > 100 |
| CCN1C(=S)N(CC)C2C1NC(=S)N2/N=C/C=C/c1ccccc1OC (stereo not given) | 0.354 | 25.3 |
